Results taken from ChEMBL document CHEMBL2439971, “Design, synthesis and antiproliferative evaluation of fluorenone analogs with DNA topoisomerase I inhibitory properties” (Bioorg Med Chem, 2013).

Columns and labels:
OVCAR-5 [1] = test: Cytotoxicity against human OVCAR5 cells at 10 uM after 48 hrs by sulforhodamine B assay relative to control; format: functional
OVCAR-5 [2] = test: Cytotoxicity against human OVCAR5 cells after 48 hrs by sulforhodamine B assay; format: functional; details: OVCAR-5, 48 h
LOX IMVI = test: Cytotoxicity against human LOXIMVI cells at 10 uM after 48 hrs by sulforhodamine B assay relative to control; format: functional
NCI-H522 [3] = test: Cytotoxicity against human NCI-H522 cells after 48 hrs by sulforhodamine B assay; format: functional; details: NCI-H522, 48 h
CCRF-CEM [4] = test: Cytotoxicity against human CCRF-CEM cells after 48 hrs by sulforhodamine B assay; format: functional
NCI-H522 [5] = test: Cytotoxicity against human NCI-H522 cells at 10 uM after 48 hrs by sulforhodamine B assay relative to control; format: functional
SW-620 = test: Cytotoxicity against human SW620 cells after 48 hrs by sulforhodamine B assay; format: functional; details: SW-620, 48 h
Malme-3M = test: Cytotoxicity against human MALME-3M cells after 48 hrs by sulforhodamine B assay; format: functional
RXF 393 [6] = test: Cytotoxicity against human RXF393 cells after 48 hrs by sulforhodamine B assay; format: functional; details: RXF 393, 48 h
CCRF-CEM [7] = test: Cytotoxicity against human CCRF-CEM cells at 10 uM after 48 hrs by sulforhodamine B assay relative to control; format: functional
HOP-62 [8] = test: Cytotoxicity against human HOP62 cells after 48 hrs by sulforhodamine B assay; format: functional; details: HOP-62, 48 h
IGROV-1 = test: Cytotoxicity against human IGROV1 cells after 48 hrs by sulforhodamine B assay; format: functional; details: IGROV-1, 48 h
MDA-MB-468 = test: Cytotoxicity against human MDA-MB-468 cells at 10 uM after 48 hrs by sulforhodamine B assay relative to control; format: functional
K562 = test: Cytotoxicity against human K562 cells after 48 hrs by sulforhodamine B assay; format: functional; details: K562, 48 h
MCF7 [9] = test: Cytotoxicity against human MCF7 cells after 48 hrs by sulforhodamine B assay; format: functional; details: MCF7, 48 h
SF-295 = test: Cytotoxicity against human SF295 cells after 48 hrs by sulforhodamine B assay; format: functional; details: SF-295, 48 h
SR = test: Cytotoxicity against human SR cells at 10 uM after 48 hrs by sulforhodamine B assay relative to control; format: functional
HL-60(TB) = test: Cytotoxicity against human HL-60(TB) cells after 48 hrs by sulforhodamine B assay; format: functional; details: HL-60, 48 h
BT-549 [10] = test: Cytotoxicity against human BT549 cells after 48 hrs by sulforhodamine B assay; format: functional; details: BT-549, 48 h
OVCAR-3 = test: Cytotoxicity against human OVCAR3 cells at 10 uM after 48 hrs by sulforhodamine B assay relative to control; format: functional
NCI/ADR-RES = test: Cytotoxicity against human NCI/ADR-RES cells at 10 uM after 48 hrs by sulforhodamine B assay relative to control; format: functional
UACC-62 = test: Cytotoxicity against human UACC62 cells after 48 hrs by sulforhodamine B assay; format: functional; details: UACC-62, 48 h
DU-145 = test: Cytotoxicity against human DU145 cells at 10 uM after 48 hrs by sulforhodamine B assay relative to control; format: functional
NCI-H322M = test: Cytotoxicity against human NCI-H322M cells after 48 hrs by sulforhodamine B assay; format: functional
HOP-62 [11] = test: Cytotoxicity against human HOP62 cells at 10 uM after 48 hrs by sulforhodamine B assay relative to control; format: functional
SF-539 [12] = test: Cytotoxicity against human SF539 cells after 48 hrs by sulforhodamine B assay; format: functional; details: SF-539, 48 h
[13] = target: DNA topoisomerase 1 (Homo sapiens) (UniProt P11387); test: Inhibition of recombinant human DNA topoisomerase 1-mediated relaxation of supercoiled pHOT DNA after 45 mins by agarose gel electrophoresis
Sequence of DNA topoisomerase 1 (Homo sapiens) (P11387 whole entry): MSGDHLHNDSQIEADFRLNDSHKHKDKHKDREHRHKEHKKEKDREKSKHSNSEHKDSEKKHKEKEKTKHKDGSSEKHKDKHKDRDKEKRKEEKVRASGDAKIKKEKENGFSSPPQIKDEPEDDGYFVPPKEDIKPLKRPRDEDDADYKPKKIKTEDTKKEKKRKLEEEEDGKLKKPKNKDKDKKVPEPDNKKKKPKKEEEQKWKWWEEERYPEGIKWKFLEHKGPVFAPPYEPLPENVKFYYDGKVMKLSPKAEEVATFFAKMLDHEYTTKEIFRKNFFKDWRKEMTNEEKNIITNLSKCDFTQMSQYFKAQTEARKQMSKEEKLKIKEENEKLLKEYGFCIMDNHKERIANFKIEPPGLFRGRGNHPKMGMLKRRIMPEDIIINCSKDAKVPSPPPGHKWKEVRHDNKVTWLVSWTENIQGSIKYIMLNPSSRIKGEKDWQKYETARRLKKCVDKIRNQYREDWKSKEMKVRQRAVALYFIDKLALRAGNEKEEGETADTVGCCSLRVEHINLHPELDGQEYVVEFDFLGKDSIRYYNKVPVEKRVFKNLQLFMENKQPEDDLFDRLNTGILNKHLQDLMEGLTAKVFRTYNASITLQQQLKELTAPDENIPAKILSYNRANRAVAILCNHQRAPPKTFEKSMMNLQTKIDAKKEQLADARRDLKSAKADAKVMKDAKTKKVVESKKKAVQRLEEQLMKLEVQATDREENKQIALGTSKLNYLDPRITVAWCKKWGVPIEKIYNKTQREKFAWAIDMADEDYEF

SF-268 = test: Cytotoxicity against human SF268 cells after 48 hrs by sulforhodamine B assay; format: functional; details: SF-268, 48 h
MCF7 [14] = test: Cytotoxicity against human MCF7 cells at 10 uM after 48 hrs by sulforhodamine B assay relative to control; format: functional
SNB-19 = test: Cytotoxicity against human SNB19 cells at 10 uM after 48 hrs by sulforhodamine B assay relative to control; format: functional
CAKI-1 = test: Cytotoxicity against human CAKI-1 cells at 10 uM after 48 hrs by sulforhodamine B assay relative to control; format: functional
U-251 = test: Cytotoxicity against human U251 cells at 10 uM after 48 hrs by sulforhodamine B assay relative to control; format: functional
HT-29 [15] = test: Cytotoxicity against human HT-29 cells at 10 uM after 48 hrs by sulforhodamine B assay relative to control; format: functional
HT-29 [16] = test: Cytotoxicity against human HT-29 cells after 48 hrs by sulforhodamine B assay; format: functional; details: HT-29, 48 h
MDA-MB-435 = test: Cytotoxicity against human MDA-MB-435 cells after 48 hrs by sulforhodamine B assay; format: functional; details: MDA-MB-435, 48 h
SF-539 [17] = test: Cytotoxicity against human SF539 cells at 10 uM after 48 hrs by sulforhodamine B assay relative to control; format: functional
MOLT-4 = test: Cytotoxicity against human MOLT4 cells at 10 uM after 48 hrs by sulforhodamine B assay relative to control; format: functional
KM12 = test: Cytotoxicity against human KM12 cells at 10 uM after 48 hrs by sulforhodamine B assay relative to control; format: functional
RXF 393 [18] = test: Cytotoxicity against human RXF393 cells at 10 uM after 48 hrs by sulforhodamine B assay relative to control; format: functional
BT-549 [19] = test: Cytotoxicity against human BT549 cells at 10 uM after 48 hrs by sulforhodamine B assay relative to control; format: functional
[20] = read-out: LC50 (the source's name)

CCCCNCC(=O)Nc1ccc2c(c1)C(=O)c1cc(NC(=O)CNCCCC)ccc1-2
Activity (OVCAR-5 [1]): 93.22% | GI50 (OVCAR-5 [2]): 3.06 µM | TGI (OVCAR-5 [2]): 10.6 µM | CC50 (OVCAR-5 [2]; [20]): 34.5 µM | Activity (LOX IMVI): -78.38% | GI50 (NCI-H522 [3]): 2.08 µM | TGI (NCI-H522 [3]): 4.08 µM | CC50 (NCI-H522 [3]; [20]): 7.99 µM | GI50 (CCRF-CEM [4]): 1.6 µM | TGI (CCRF-CEM [4]): 4.02 µM | CC50 (CCRF-CEM [4]; [20]): 10.7 µM | Activity (NCI-H522 [5]): -50.74% | GI50 (SW-620): 1.25 µM | TGI (SW-620): 3 µM | CC50 (SW-620; [20]): 7.16 µM | GI50 (Malme-3M): 1.94 µM | TGI (Malme-3M): 3.98 µM | CC50 (Malme-3M; [20]): 8.17 µM | GI50 (RXF 393 [6]): 1.83 µM | TGI (RXF 393 [6]): 3.52 µM | CC50 (RXF 393 [6]; [20]): 6.78 µM | Activity (CCRF-CEM [7]): -35.23% | GI50 (HOP-62 [8]): 2.07 µM | TGI (HOP-62 [8]): 6.74 µM | CC50 (HOP-62 [8]; [20]): 26 µM | GI50 (IGROV-1): 2.24 µM | TGI (IGROV-1): 6.53 µM | CC50 (IGROV-1; [20]): 40.6 µM | Activity (MDA-MB-468): -67.44% | GI50 (K562): 0.39 µM | TGI (K562): 1.56 µM | CC50 (K562; [20]): 5.7 µM | GI50 (MCF7 [9]): 2.25 µM | TGI (MCF7 [9]): 8.79 µM | CC50 (MCF7 [9]; [20]): 4.4 µM | GI50 (SF-295): 1.67 µM | TGI (SF-295): 3.47 µM | CC50 (SF-295; [20]): 7.2 µM | Activity (SR): -56.48% | GI50 (HL-60(TB)): 1.1 µM | TGI (HL-60(TB)): 2.77 µM | CC50 (HL-60(TB); [20]): 6.98 µM | GI50 (BT-549 [10]): 2.05 µM | TGI (BT-549 [10]): 6.05 µM | CC50 (BT-549 [10]; [20]): 24.6 µM | Activity (OVCAR-3): -51.72% | Activity (NCI/ADR-RES): 64.82% | GI50 (UACC-62): 1.61 µM | TGI (UACC-62): 3.03 µM | CC50 (UACC-62; [20]): 5.69 µM | Activity (DU-145): 35.16% | GI50 (NCI-H322M): 2.12 µM | TGI (NCI-H322M): 6.93 µM | CC50 (NCI-H322M; [20]): 31.5 µM | Activity (HOP-62 [11]): -5.44% | GI50 (SF-539 [12]): 1.76 µM | TGI (SF-539 [12]): 3.26 µM | CC50 (SF-539 [12]; [20]): 6.05 µM | INH [13]: < 5 µM | GI50 (SF-268): 1.69 µM | TGI (SF-268): 3.97 µM | CC50 (SF-268; [20]): 9.33 µM | Activity (MCF7 [14]): 10.48% | Activity (SNB-19): 39.02% | Activity (CAKI-1): 62.66% | Activity (U-251): -57.52% | Activity (HT-29 [15]): -52.59% | GI50 (HT-29 [16]): 1.1 µM | TGI (HT-29 [16]): 2.53 µM | CC50 (HT-29 [16]; [20]): 5.86 µM | GI50 (MDA-MB-435): 1.63 µM | TGI (MDA-MB-435): 3.4 µM | CC50 (MDA-MB-435; [20]): 7.1 µM | Activity (SF-539 [17]): -82.99% | Activity (MOLT-4): -42.18% | Activity (KM12): 30.09% | Activity (RXF 393 [18]): -76.54% | Activity (BT-549 [19]): 69.3%
